In patent US10323022B2, “Pyrrolidinyl urea, pyrrolidinyl thiourea and pyrrolidinyl guanidine compounds as TrkA kinase inhibitors” (Array BioPharma Inc., priority 2011, dated 2019):

biological target: TrkA (Homo sapiens (Human), UniProt P04629); assay: TrkA Omnia Assay; format: biochemical; details: averaged IC50; 20 nM enzyme, 500 μM ATP, 10 μM peptide substrate
Summary of the method: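 Continuous fluorescent kinase read-out (ex 360 nm, em 485 nm) over 70 min, with initial rates fitted to 4- or 5-parameter logistic curves for IC50. Final conditions: 500 μM ATP, 10 μM Omnia Tyr Peptide #4, 20 nM TrkA, MOPS pH 7.5 buffer with MgCl2 and Triton X-100; enzyme and compound preincubated 10 min at ambient temperature.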

Chain of TrkA (P04629 33-796): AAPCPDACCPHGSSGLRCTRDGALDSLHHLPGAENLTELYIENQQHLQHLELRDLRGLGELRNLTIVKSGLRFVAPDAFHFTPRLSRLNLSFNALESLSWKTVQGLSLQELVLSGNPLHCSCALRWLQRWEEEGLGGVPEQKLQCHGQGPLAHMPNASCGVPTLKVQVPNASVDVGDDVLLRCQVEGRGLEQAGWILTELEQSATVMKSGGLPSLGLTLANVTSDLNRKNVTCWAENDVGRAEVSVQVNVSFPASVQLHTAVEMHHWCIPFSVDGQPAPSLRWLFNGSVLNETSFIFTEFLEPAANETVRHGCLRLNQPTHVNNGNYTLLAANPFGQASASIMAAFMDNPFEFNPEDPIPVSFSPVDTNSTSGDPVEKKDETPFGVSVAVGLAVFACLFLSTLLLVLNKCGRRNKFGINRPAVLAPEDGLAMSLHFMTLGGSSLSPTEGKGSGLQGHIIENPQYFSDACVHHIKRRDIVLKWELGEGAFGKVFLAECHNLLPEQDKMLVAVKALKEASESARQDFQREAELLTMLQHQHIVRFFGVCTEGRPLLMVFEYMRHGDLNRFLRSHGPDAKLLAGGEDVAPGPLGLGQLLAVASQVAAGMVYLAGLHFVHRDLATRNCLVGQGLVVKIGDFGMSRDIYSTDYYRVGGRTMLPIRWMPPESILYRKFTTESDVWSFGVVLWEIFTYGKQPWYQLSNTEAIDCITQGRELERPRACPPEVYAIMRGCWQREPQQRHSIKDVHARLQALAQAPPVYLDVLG

SMILES	IC50
COCCN1C[C@@H](NC(=O)Nc2c(C)c(OC[C@H](C)O)nn2-c2ccccc2)[C@H](c2cc(F)c(F)c(F)c2)C1 [Example 561, 1-(3-((S)-2-hydroxypropoxy)-4-methyl-1-phenyl-1H-pyrazol-5-yl)-3-((3S,4R)-1-(2-methoxyethyl)-4-(3,4,5-trifluorophenyl)pyrrolidin-3-yl)urea]	< 100 nM
COCCN1C[C@@H](NC(=O)Nc2c(C)c(OC[C@@H](O)COC)nn2-c2ccccc2)[C@H](c2ccc(F)c(F)c2)C1 [Example 562, 1-((3S,4R)-4-(3,4-difluorophenyl)-1-(2-methoxyethyl)pyrrolidin-3-yl)-3-(3-((S)-2-hydroxy-3-methoxypropoxy)-4-methyl-1-phenyl-1H-pyrazol-5-yl)urea]	< 100 nM
COCCN1C[C@@H](NC(=O)Nc2c(C)c(OC[C@H](O)COC)nn2-c2ccccc2)[C@H](c2ccc(F)c(F)c2)C1 [Example 563, 1-((3S,4R)-4-(3,4-difluorophenyl)-1-(2-methoxyethyl)pyrrolidin-3-yl)-3-(3-((R)-2-hydroxy-3-methoxypropoxy)-4-methyl-1-phenyl-1H-pyrazol-5-yl)urea]	< 100 nM
COCCN1C[C@@H](NC(=O)Nc2c(C)c(OC[C@@H](O)COC)nn2-c2ccccc2)[C@H](c2cc(F)c(F)c(F)c2)C1 [Example 564, 1-(3-((S)-2-hydroxy-3-methoxypropoxy)-4-methyl-1-phenyl-1H-pyrazol-5-yl)-3-((3S,4R)-1-(2-methoxyethyl)-4-(3,4,5-trifluorophenyl)pyrrolidin-3-yl)urea]	< 100 nM
COCCN1C[C@@H](NC(=O)Nc2c(C)c(OC[C@H](O)COC)nn2-c2ccccc2)[C@H](c2cc(F)c(F)c(F)c2)C1 [Example 565, 1-(3-((R)-2-hydroxy-3-methoxypropoxy)-4-methyl-1-phenyl-1H-pyrazol-5-yl)-3-((3S,4R)-1-(2-methoxyethyl)-4-(3,4,5-trifluorophenyl)pyrrolidin-3-yl)urea]	< 100 nM
COCCN1C[C@@H](NC(=O)Nc2c(Br)c(-c3cnn(C)c3)nn2C)[C@H](c2ccc(F)c(F)c2)C1 [Example 566, 1-(4-bromo-1,1′-dimethyl-1H, 1′H-[3,4′-bipyrazol]-5-yl)-3-((3S,4R)-4-(3,4-difluorophenyl)-1-(2-methoxyethyl)pyrrolidin-3-yl)urea]	100 to 1000 nM
COCCN1C[C@@H](NC(=O)Nc2c(Cl)c(-c3cnn(C)c3)nn2C)[C@H](c2ccc(F)c(F)c2)C1 [Example 567, 1-(4-chloro-1,1′-dimethyl-1H, 1′H-[3,4′-bipyrazol]-5-yl)-3-((3S,4R)-4-(3,4-difluorophenyl)-1-(2-methoxyethyl)pyrrolidin-3-yl)urea]	100 to 1000 nM
COCCN1C[C@@H](NC(=O)Nc2c(Br)c(-c3c(C)noc3C)nn2-c2ccccc2)[C@H](c2ccc(F)c(F)c2)C1 [Example 577, 1-(4-bromo-3-(3,5-dimethylisoxazol-4-yl)-1-phenyl-1H-pyrazol-5-yl)-3-((3S,4R)-4-(3,4-difluorophenyl)-1-(2-methoxyethyl)pyrrolidin-3-yl)urea]	< 100 nM
COCCN1C[C@@H](NC(=O)Nc2c(Br)c([C@H]3CCCN3C(=O)OC(C)(C)C)nn2-c2ccccc2)[C@H](c2ccc(F)c(F)c2)C1 [Example 578, (R)-tert-butyl 2-(4-bromo-5-(3-((3S,4R)-4-(3,4-difluorophenyl)-1-(2-methoxyethyl)pyrrolidin-3-yl)ureido)-1-phenyl-1H-pyrazol-3-yl)pyrrolidine-1-carboxylate]	100 to 1000 nM
COCCN1C[C@@H](NC(=O)Nc2c(Br)c(COC3CCN(C(=O)OC(C)(C)C)CC3)nn2-c2ccccc2)[C@H](c2ccc(F)c(F)c2)C1 [Example 579, tert-butyl 4-((4-bromo-5-(3-((3S,4R)-4-(3,4-difluorophenyl)-1-(2-methoxyethyl)pyrrolidin-3-yl)ureido)-1-phenyl-1H-pyrazol-3-yl)methoxy)piperidine-1-carboxylate]	< 100 nM

Other lines, results leading:

IC50	SMILES
< 100 nM	COCCN1C[C@@H](NC(=O)Nc2c(Cl)c(C3CCOCC3)nn2-c2ccccc2)[C@H](c2ccc(F)c(F)c2)C1 [Example 568, 1-(4-chloro-1-phenyl-3-(tetrahydro-2H-pyran-4-yl)-1H-pyrazol-5-yl)-3-((3S,4R)-4-(3,4-difluorophenyl)-1-(2-methoxyethyl)pyrrolidin-3-yl)urea]
< 100 nM	COCCN1C[C@@H](NC(=O)Nc2c(Cl)c(C3CCN(C(=O)OC(C)(C)C)CC3)nn2-c2ccccc2)[C@H](c2ccc(F)c(F)c2)C1 [Example 569, Tert-butyl 4-(4-chloro-5-(3-((3S,4R)-4-(3,4-difluorophenyl)-1-(2-methoxyethyl)pyrrolidin-3-yl)ureido)-1-phenyl-1H-pyrazol-3-yl)piperidine-1-carboxylate]
< 100 nM	COCCN1C[C@@H](NC(=O)Nc2c(Cl)c(C3CCOCC3)nn2-c2ccccc2)[C@H](c2ccc(F)cc2)C1 [Example 570, 1-(4-chloro-1-phenyl-3-(tetrahydro-2H-pyran-4-yl)-1H-pyrazol-5-yl)-3-((3S,4R)-4-(4-fluorophenyl)-1-(2-methoxyethyl)pyrrolidin-3-yl)urea]
< 100 nM	COCCN1C[C@@H](NC(=O)Nc2c(Cl)c(-c3c(C)noc3C)nn2-c2ccccc2)[C@H](c2ccc(F)c(F)c2)C1 [Example 571, 1-(4-chloro-3-(3,5-dimethylisoxazol-4-yl)-1-phenyl-1H-pyrazol-5-yl)-3-((3S,4R)-4-(3,4-difluorophenyl)-1-(2-methoxyethyl)pyrrolidin-3-yl)urea]
100 to 1000 nM	COCCN1C[C@@H](NC(=O)Nc2c(Cl)c([C@H]3CCCN3C(=O)OC(C)(C)C)nn2-c2ccccc2)[C@H](c2ccc(F)c(F)c2)C1 [Example 572, (R)-tert-butyl 2-(4-chloro-5-(3-((3S,4R)-4-(3,4-difluorophenyl)-1-(2-methoxyethyl)pyrrolidin-3-yl)ureido)-1-phenyl-1H-pyrazol-3-yl)pyrrolidine-1-carboxylate]
100 to 1000 nM	COCCN1C[C@@H](NC(=O)Nc2c(Cl)c([C@@H]3CCCN3C(=O)OC(C)(C)C)nn2-c2ccccc2)[C@H](c2ccc(F)c(F)c2)C1 [Example 573, (S)-tert-butyl 2-(4-chloro-5-(3-((3S,4R)-4-(3,4-difluorophenyl)-1-(2-methoxyethyl)pyrrolidin-3-yl)ureido)-1-phenyl-1H-pyrazol-3-yl)pyrrolidine-1-carboxylate]
< 100 nM	COCCN1C[C@@H](NC(=O)Nc2c(Br)c(C3CCOCC3)nn2-c2ccccc2)[C@H](c2ccc(F)c(F)c2)C1 [Example 574, 1-(4-bromo-1-phenyl-3-(tetrahydro-2H-pyran-4-yl)-1H-pyrazol-5-yl)-3-((3S,4R)-4-(3,4-difluorophenyl)-1-(2-methoxyethyl)pyrrolidin-3-yl)urea]
< 100 nM	COCCN1C[C@@H](NC(=O)Nc2c(Br)c(C3CCN(C(=O)OC(C)(C)C)CC3)nn2-c2ccccc2)[C@H](c2ccc(F)c(F)c2)C1 [Example 575, Tert-butyl 4-(4-bromo-5-(3-((3S,4R)-4-(3,4-difluorophenyl)-1-(2-methoxyethyl)pyrrolidin-3-yl)ureido)-1-phenyl-1H-pyrazol-3-yl)piperidine-1-carboxylate]
< 100 nM	COCCN1C[C@@H](NC(=O)Nc2c(Br)c(C3CCOCC3)nn2-c2ccccc2)[C@H](c2ccc(F)cc2)C1 [Example 576, 1-(4-bromo-1-phenyl-3-(tetrahydro-2H-pyran-4-yl)-1H-pyrazol-5-yl)-3-((3S,4R)-4-(4-fluorophenyl)-1-(2-methoxyethyl)pyrrolidin-3-yl)urea]
